# In US9624208B2, “Benzoxazolinone compounds with selective activity in voltage-gated sodium channels” (Merck Sharp & Dohme Corp., priority 2012, dated 2017):
# Experiments:
# human Nav1.5 = target: T1, human Nav1.5 (Homo sapiens, UniProt Q14524); experiment: PatchXpress sodium current measurement, inactivated state block, Nav1.5; format: cell-based; conditions: determined by PatchXpress measurement, HEK 293 cells
# T1 construct: expressed in transfected cells
# Protocol: (§1) Cell Based Assays for Nav 1.7 and Nav 1.5 Activity
# (§2) Compounds were tested on human Nav1.7 and Nav1.5 channels stably expressed in HEK 293 cells.
# (§3) Sodium Current Measurements on the PatchXpress 7000:
# (§4) To measure inactivated state block of sodium channels, test compounds were characterized in an automated PatchXpress® assay (Molecular Devices) using a double-pulse protocol on human Nav1.7 and Nav1.5 channels stably expressed in HEK 293 cells. Cells were held at a potential 20 mV negative to the potential at which ˜50% of the channels are inactivated. A 8000 ms pre-pulse 7 mV positive to the potential at which ˜50% of the channels are inactivated was given followed by a hyperpolarizing 2 ms pulse to −120 mV and a 20 ms test pulse to −20 mV. The protocol was applied to cells in the absence, presence of compound and after washout. The temperature of PatchXpress® instruments was maintained at 22° C. The following recording solutions were used. Internal solution (mM): 30 CsCl, 5 HEPES, 10 EGTA, 120 CsF, 5 NaF, 2 MgCl2, pH 7.3 with CsOH. External solution (mM): 120 NMDG, 40 NaCl, 1 KCl, 0.5 MgCl2, 5 HEPES, 2.7 CaCl2, pH 7.5 with NMDG-OH. Estimated IC50 values were calculated based on at least two compound concentrations tested. For all electrophysiology experiments, offline analysis was used to correct for current rundown and to determine percent inhibition as a function of drug concentration. IC50 values were determined by fitting to the Hill equation.
# human Nav1.7 = target: T2, human Nav1.7 (Homo sapiens, UniProt Q15858); experiment: PatchXpress sodium current measurement, inactivated state block, Nav1.7; format: cell-based; conditions: channels stably expressed in HEK 293 cells, double-pulse protocol, 22° C., read-out: potency for the Nav 1.7 sodium ion channel (1.7=)
# T2 construct: expressed in transfected cells
# Protocol: as §1, §2, §3, §4
# T1 sequence (Q14524 whole entry): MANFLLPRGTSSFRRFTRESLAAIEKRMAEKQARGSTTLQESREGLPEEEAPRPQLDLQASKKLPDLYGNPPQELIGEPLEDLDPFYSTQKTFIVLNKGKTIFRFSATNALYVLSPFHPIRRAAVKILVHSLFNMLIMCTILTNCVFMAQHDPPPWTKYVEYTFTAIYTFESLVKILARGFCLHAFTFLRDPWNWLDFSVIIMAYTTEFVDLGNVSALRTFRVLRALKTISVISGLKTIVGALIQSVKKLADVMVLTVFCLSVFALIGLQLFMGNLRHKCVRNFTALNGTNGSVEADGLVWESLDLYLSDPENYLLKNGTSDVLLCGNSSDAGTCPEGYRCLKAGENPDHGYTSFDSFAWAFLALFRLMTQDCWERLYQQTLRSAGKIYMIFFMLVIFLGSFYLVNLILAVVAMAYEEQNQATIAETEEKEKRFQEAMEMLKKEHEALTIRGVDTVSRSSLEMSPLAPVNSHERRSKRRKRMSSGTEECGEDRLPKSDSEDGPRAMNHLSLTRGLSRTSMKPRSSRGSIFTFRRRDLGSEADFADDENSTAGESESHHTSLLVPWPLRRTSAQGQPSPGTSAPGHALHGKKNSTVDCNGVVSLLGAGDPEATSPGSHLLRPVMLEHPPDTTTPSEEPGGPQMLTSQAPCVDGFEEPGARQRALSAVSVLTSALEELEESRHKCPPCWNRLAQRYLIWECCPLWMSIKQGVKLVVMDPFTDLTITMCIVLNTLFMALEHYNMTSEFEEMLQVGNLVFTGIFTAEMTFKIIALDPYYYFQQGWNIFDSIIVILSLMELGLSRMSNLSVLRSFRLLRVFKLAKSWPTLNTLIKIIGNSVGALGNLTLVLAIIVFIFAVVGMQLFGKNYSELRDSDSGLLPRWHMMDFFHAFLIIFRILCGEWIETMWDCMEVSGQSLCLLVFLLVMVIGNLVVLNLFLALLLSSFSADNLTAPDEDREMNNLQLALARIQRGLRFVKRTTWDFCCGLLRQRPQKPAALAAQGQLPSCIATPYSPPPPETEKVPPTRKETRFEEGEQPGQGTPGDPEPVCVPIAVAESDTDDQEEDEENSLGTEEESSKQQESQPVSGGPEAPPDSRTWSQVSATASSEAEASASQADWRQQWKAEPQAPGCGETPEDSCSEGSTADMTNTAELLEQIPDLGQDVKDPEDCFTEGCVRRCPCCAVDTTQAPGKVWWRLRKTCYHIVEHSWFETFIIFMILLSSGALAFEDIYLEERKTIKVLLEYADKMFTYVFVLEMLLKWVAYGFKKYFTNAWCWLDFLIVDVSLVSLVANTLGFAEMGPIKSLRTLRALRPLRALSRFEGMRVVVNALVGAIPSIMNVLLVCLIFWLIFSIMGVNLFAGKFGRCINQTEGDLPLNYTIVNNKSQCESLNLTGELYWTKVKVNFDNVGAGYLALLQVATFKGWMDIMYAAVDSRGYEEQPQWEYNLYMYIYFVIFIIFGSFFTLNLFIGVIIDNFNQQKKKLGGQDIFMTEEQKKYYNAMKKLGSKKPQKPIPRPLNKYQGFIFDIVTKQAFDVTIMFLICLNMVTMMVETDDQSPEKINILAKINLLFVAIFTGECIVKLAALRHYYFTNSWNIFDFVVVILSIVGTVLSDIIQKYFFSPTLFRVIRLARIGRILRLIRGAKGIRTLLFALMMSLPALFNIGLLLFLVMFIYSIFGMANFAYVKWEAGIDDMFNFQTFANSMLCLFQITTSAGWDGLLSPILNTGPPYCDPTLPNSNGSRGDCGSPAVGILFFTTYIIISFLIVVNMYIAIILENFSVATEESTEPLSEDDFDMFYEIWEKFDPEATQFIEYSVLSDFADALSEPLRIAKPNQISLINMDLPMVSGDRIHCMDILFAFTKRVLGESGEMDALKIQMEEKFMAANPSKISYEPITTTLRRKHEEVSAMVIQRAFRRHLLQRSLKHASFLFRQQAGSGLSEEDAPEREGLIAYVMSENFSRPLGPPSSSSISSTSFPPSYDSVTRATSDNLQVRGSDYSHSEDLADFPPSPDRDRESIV
# T2 sequence (Q15858 whole entry): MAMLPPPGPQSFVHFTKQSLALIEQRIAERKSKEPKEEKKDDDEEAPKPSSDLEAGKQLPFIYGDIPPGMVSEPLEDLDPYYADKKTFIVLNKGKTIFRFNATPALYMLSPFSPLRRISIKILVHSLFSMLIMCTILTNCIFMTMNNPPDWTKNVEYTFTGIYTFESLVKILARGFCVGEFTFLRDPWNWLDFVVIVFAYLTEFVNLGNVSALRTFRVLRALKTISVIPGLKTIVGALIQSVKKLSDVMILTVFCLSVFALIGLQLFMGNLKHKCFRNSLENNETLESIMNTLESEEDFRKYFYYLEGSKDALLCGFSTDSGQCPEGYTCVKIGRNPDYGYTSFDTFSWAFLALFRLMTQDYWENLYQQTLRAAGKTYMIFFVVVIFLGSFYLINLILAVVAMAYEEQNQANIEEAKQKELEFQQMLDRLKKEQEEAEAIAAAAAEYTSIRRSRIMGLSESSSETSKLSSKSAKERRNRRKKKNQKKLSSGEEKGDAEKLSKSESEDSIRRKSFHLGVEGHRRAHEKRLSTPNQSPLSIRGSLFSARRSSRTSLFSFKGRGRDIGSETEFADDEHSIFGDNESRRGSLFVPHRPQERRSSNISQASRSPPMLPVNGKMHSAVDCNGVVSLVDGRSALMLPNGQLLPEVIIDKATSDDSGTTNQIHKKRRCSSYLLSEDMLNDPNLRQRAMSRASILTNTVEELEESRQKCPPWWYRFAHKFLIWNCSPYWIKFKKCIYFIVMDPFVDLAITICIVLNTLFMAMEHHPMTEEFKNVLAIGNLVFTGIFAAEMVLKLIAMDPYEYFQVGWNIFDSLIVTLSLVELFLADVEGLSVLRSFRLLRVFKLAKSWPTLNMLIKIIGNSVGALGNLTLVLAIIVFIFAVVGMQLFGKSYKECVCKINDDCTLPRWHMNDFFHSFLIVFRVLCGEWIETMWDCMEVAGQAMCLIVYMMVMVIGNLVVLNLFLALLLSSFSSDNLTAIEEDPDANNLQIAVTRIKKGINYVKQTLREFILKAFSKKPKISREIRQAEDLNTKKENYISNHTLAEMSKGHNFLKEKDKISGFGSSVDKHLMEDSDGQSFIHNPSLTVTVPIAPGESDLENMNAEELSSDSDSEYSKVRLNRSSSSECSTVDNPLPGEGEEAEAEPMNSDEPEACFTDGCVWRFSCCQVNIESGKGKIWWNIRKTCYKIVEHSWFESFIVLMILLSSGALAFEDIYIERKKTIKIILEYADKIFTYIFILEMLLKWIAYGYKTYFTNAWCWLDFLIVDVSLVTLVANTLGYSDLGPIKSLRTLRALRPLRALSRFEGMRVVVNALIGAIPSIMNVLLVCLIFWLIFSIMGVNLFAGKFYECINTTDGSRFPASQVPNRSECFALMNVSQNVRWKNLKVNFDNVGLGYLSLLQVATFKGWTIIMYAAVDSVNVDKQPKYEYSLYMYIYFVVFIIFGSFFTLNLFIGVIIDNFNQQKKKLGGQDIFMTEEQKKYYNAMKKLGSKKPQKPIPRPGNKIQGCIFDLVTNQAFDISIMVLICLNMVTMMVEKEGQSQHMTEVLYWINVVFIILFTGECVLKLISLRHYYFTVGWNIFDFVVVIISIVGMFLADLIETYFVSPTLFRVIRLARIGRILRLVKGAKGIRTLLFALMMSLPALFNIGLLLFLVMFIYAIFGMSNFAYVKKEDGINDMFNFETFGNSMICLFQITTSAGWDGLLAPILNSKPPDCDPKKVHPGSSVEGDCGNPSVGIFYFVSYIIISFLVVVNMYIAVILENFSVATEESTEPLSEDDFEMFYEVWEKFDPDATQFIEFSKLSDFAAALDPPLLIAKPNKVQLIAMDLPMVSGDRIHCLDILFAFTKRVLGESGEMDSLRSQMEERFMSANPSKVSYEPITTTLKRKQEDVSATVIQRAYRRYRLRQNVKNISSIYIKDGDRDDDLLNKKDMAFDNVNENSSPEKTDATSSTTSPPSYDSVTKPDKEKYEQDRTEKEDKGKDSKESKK
SMILES,ratio of Nav 1.5:Nav 1.7 potency (human Nav1.5),IC50 (human Nav1.7)
"Cc1cc2c(cc1S(=O)(=O)Nc1cccc(F)n1)oc(=O)n2[C@H](C)c1cccc(Br)c1C [Ex18-7, 3-[(1R)-1-(3-bromo-2-methylphenyl)ethyl]-N-(6-fluoropyridin-2-yl)-5-methyl-2-oxo-2,3-dihydro-1,3-benzoxazole-6-sulfonamide]",90,69 nM
"Cc1cc2c(cc1S(=O)(=O)Nc1cccc(F)n1)oc(=O)n2[C@H](C)c1cccc(C)c1Br [Ex18-8, 3-[(1R)-1-(2-bromo-3-methylphenyl)ethyl]-N-(6-fluoropyridin-2-yl)-5-methyl-2-oxo-2,3-dihydro-1,3-benzoxazole-6-sulfonamide]",102,107 nM
"Cc1cccc([C@@H](C)n2c(=O)oc3cc(S(=O)(=O)Nc4cccc(F)n4)c(F)cc32)c1CN [Ex19-1, 3-{(1R)-1-[2-(aminomethyl)-3-methylphenyl]ethyl}-5-fluoro-N-(6-fluoropyridin-2-yl)-2-oxo-2,3-dihydro-1,3-benzoxazole-6-sulfonamide]",603,9 nM
"Cc1cc2c(cc1S(=O)(=O)Nc1cccc(F)n1)oc(=O)n2[C@H](C)c1cccc(C)c1CN [Ex19-2, 3-{(1R)-1-[2-(aminomethyl)-3-methylphenyl]ethyl}-N-(6-fluoropyridin-2-yl)-5-methyl-2-oxo-2,3-dihydro-1,3-benzoxazole-6-sulfonamide]",133,14 nM
"C[C@H](c1cccc(CN)c1)n1c(=O)oc2cc(S(=O)(=O)Nc3cccc(F)n3)c(F)cc21 [Ex19-5, 3-{(1R)-1-[3-(aminomethyl)phenyl]ethyl}-5-fluoro-N-(6-fluoropyridin-2-yl)-2-oxo-2,3-dihydro-1,3-benzoxazole-6-sulfonamide]",96,482 nM
"C[C@H](c1cccc(CCN)c1)n1c(=O)oc2cc(S(=O)(=O)Nc3cccc(F)n3)c(F)cc21 [Ex19-11, 3-{(1R)-1-[3-(2-aminoethyl)phenyl]ethyl}-5-fluoro-N-(6-fluoropyridin-2-yl)-2-oxo-2,3-dihydro-1,3-benzoxazole-6-sulfonamide]",244,103 nM
Cc1c(CCN)cccc1[C@@H](C)n1c(=O)oc2cc(S(=O)(=O)Nc3cccc(F)n3)c(F)cc21 [Ex19-12],195,154 nM
"C[C@H](c1ccccc1C1CCCN1)n1c(=O)oc2cc(S(=O)(=O)Nc3cccc(F)n3)c(F)cc21 (stereo partly drawn) [Ex20-1, 5-fluoro-N-(6-fluoropyridin-2-yl)-2-oxo-3-{(1R)-1-[2-(pyrrolidin-2-yl)phenyl]ethyl}-2,3-dihydro-1,3-benzoxazole-6-sulfonamide]",120,98 nM
"Cc1cccc([C@@H](C)n2c(=O)oc3cc(S(=O)(=O)Nc4cccc(F)n4)c(F)cc32)c1C1CCCN1 (stereo partly drawn) [Ex20-2, 5-fluoro-N-(6-fluoropyridin-2-yl)-3-{(1R)-1-[3-methyl-2-(pyrrolidin-2-yl)phenyl]ethyl}-2-oxo-2,3-dihydro-1,3-benzoxazole-6-sulfonamide]",272,35 nM
"C[C@H](c1cccc(C2CCCN2)c1)n1c(=O)oc2cc(S(=O)(=O)Nc3cccc(F)n3)c(F)cc21 (stereo partly drawn) [Ex20-3, 5-fluoro-N-(6-fluoropyridin-2-yl)-2-oxo-3-{(1R)-1-[3-(pyrrolidin-2-yl)phenyl]ethyl}-2,3-dihydro-1,3-benzoxazole-6-sulfonamide]",218,243 nM
"C[C@H](c1cccc(C#CC(C)(C)N)c1)n1c(=O)oc2cc(S(=O)(=O)Nc3cccc(F)n3)c(F)cc21 [Ex21-1, 3-{(1R)-1-[3-(3-amino-3-methylbut-1-yn-1-yl)phenyl]ethyl}-5-fluoro-N-(6-fluoropyridin-2-yl)-2-oxo-2,3-dihydro-1,3-benzoxazole-6-sulfonamide]",151,229 nM
"CNCC#Cc1cccc([C@@H](C)n2c(=O)oc3cc(S(=O)(=O)Nc4cccc(F)n4)c(F)cc32)c1 [Ex21-2, 5-fluoro-N-(6-fluoropyridin-2-yl)-3-[(1R)-1-{3-[3-(methylamino)prop-1-yn-1-yl]phenyl}ethyl]-2-oxo-2,3-dihydro-1,3-benzoxazole-6-sulfonamide]",122,245 nM
"C[C@H](c1cccc(C#CCN(C)C)c1)n1c(=O)oc2cc(S(=O)(=O)Nc3cccc(F)n3)c(F)cc21 [Ex21-3, 3-[(1R)-1-{3-[3-(dimethylamino)prop-1-yn-1-yl]phenyl}ethyl]-5-fluoro-N-(6-fluoropyridin-2-yl)-2-oxo-2,3-dihydro-1,3-benzoxazole-6-sulfonamide]",37,808 nM
"C[C@H](c1cccc(C#CC2(N)CCCCC2)c1)n1c(=O)oc2cc(S(=O)(=O)Nc3cccc(F)n3)c(F)cc21 [Ex21-4, 3-[(1R)-1-{3-[(1-aminocyclohexyl)-ethynyl]phenyl}ethyl]-5-fluoro-N-(6-fluoropyridin-2-yl)-2-oxo-2,3-dihydro-1,3-benzoxazole-6-sulfonamide]",45,226 nM
"CC(N)C#Cc1cccc([C@@H](C)n2c(=O)oc3cc(S(=O)(=O)Nc4cccc(F)n4)c(F)cc32)c1 (stereo partly drawn) [Ex21-5, 3-{(1R)-1-[3-(3-aminobut-1-yn-1-yl)phenyl]ethyl}-5-fluoro-N-(6-fluoropyridin-2-yl)-2-oxo-2,3-dihydro-1,3-benzoxazole-6-sulfonamide]",34,885 nM
"C[C@H](c1cccc(C#CCNC2CCCCC2)c1)n1c(=O)oc2cc(S(=O)(=O)Nc3cccc(F)n3)c(F)cc21 [Ex21-6, 3-[(1R)-1-{3-[3-(cyclohexylamino)prop-1-yn-1-yl]phenyl}ethyl]-5-fluoro-N-(6-fluoropyridin-2-yl)-2-oxo-2,3-dihydro-1,3-benzoxazole-6-sulfonamide]",27,382 nM
"C[C@H](c1cccc(C#CCN2CCCC2)c1)n1c(=O)oc2cc(S(=O)(=O)Nc3cccc(F)n3)c(F)cc21 [Ex21-7, 5-fluoro-N-(6-fluoropyridin-2-yl)-2-oxo-3-[(1R)-1-{3-[3-(pyrrolidin-1-yl)prop-1-yn-1-yl]phenyl}ethyl]-2,3-dihydro-1,3-benzoxazole-6-sulfonamide]",89,337 nM
"C[C@H](c1cccc(C#CC2CCCCN2)c1)n1c(=O)oc2cc(S(=O)(=O)Nc3cccc(F)n3)c(F)cc21 (stereo partly drawn) [Ex21-9, 5-fluoro-N-(6-fluoropyridin-2-yl)-2-oxo-3-{(1R)-1-[3-(piperidin-2-ylethynyl)phenyl]ethyl}-2,3-dihydro-1,3-benzoxazole-6-sulfonamide]",74,407 nM
"C[C@H](c1cccc(C#CC2CCCN2)c1)n1c(=O)oc2cc(S(=O)(=O)Nc3cccc(F)n3)c(F)cc21 (stereo partly drawn) [Ex21-10, 5-fluoro-N-(6-fluoropyridin-2-yl)-2-oxo-3-{(1R)-1-[3-(pyrrolidin-2-ylethynyl)phenyl]ethyl}-2,3-dihydro-1,3-benzoxazole-6-sulfonamide]",88,342 nM
"C[C@H](c1cccc(C#CCN2CCNCC2)c1)n1c(=O)oc2cc(S(=O)(=O)Nc3cccc(F)n3)c(F)cc21 [Ex21-11, 5-fluoro-N-(6-fluoropyridin-2-yl)-2-oxo-3-[(1R)-1-{3-[3-(piperazin-1-yl)prop-1-yn-1-yl]phenyl}ethyl]-2,3-dihydro-1,3-benzoxazole-6-sulfonamide]",137,189 nM
